The target of experiment [1] is T1, SHP-2 enzyme (Met1-Leu525) (Homo sapiens, UniProt Q06124).
T1 construct: synthetized by Origene, Met1-Leu525, cat #TP750155; purchased Origene TP750155
T1 sequence (Q06124 1-525): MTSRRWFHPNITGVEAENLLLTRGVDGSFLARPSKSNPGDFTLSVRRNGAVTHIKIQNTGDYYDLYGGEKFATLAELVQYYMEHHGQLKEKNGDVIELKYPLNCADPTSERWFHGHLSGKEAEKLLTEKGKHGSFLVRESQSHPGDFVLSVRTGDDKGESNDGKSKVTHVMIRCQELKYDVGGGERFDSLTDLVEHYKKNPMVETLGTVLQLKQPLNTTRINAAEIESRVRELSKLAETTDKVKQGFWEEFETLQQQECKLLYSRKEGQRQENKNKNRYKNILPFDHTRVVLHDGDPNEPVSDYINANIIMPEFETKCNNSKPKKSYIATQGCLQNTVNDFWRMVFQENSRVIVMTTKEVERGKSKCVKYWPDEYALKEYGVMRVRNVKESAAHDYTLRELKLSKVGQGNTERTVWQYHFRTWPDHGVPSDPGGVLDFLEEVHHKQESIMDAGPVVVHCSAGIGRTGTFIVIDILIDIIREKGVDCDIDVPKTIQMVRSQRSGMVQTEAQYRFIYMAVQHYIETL
Kind of experiment: SHP2 inhibition enzymatic assay (DiFMUP substrate, IRS1 peptide activation). The conditions noted are these: 0.5 nM SHP-2, 500 nM IRS1 peptide, 75 μM DiFMUP; read-out: SHP2wt - IC50. It is filed as biochemical. The method, then: Assay volume of 20 μL/well was assembled in 384 well black polystyrene low-binding microplates (Greiner), using the following buffer: 60 mM HEPES pH 7.2, 75 mM NaCl, 75 mM KCl, 1 mM EDTA pH 8, 0.05% tween-20, 5 mM DTT. The SHP-2 enzyme (synthetized by Origene, Met1-Leu525, cat #TP750155) was used at a final concentration of 0.5 nM.
Briefly, DMSO serially diluted testing compounds were transferred to the bottom of the assay plate. SHP2 was then added together with the IRS1 peptide 30 min post incubation, the DiFMUP substrate was added to the reaction and incubated 30 min at rt. […] The fluorescence was detected by a microplate reader (Envision, PerkinElmer) according to the DiFMUP excitation and emission wavelength. The lower the fluorescence the higher the SHP2 inhibition.
The percentage inhibition is fitted against the compound dilutions with a four-parameter logistic regression. The inflection point (i.e. the concentration at which half-maximal inhibition is achieved) is the IC50.

The test system of experiment [2] is phospho-ERK1/2 (Thr202/Tyr204) in KYSE-520 cells. Kind of experiment: Phospho-ERK cellular assay (TR-FRET). It is filed as cell-based. The following applies: Homo sapiens, KYSE-520 cells, 2 h at 37° C., read-out: pERK IC50. The method, then: ERK phosphorylation was detected using the “Advanced phospho-ERK1/2 (Thr202/Tyr204)” TR-FRET kit (Cisbio, Cat #64AERPEG/H), following the manufacturer reagents and instructions.
Briefly, 20.000/well KYSE-520 cells (DSMZ ACC 371) were plated in 6 μL RPMI-1640 (Invitrogen) growth medium, into 384 white low-volume high base TC microplates (Greiner). After an overnight incubation, cells were treated with DMSO serial diluted compounds and incubated for 2 h at 37° C. After incubation, 2 μL/well of 4X Lysis Buffer (Cisbio 64KL1FDF), were added and incubated with cells for 30 min on gentle shaking. Finally, lysates were added with 2 μL/well of Eu cryptate (donor) and D2 (acceptor) conjugated antibodies (as provided by the Cisbio kit #64AERPEG/H) diluted 1:100 in Detection Buffer (as provided by the Cisbio kit #64AERPEG/H). Plates were then sealed and incubated at rt in the dark. After an overnight incubation, the TR-FRET signal was detected on a suitable reader (Envision, PerkinElmer). The lower the TR-FRET signal the higher the higher the SHP2 inhibition in cells.
The activity of each compound dilution was calculated as percentage between vehicle DMSO treated cells and no cells, 0% inhibition and 100% inhibition respectively. The percentage activity is fitted against the compound dilutions with a four-parameter logistic regression. The inflection point (i.e. the concentration at which half-maximal inhibition is achieved) is the IC50.
A general note: Time-resolved FRET reads energy transfer from a long-lived donor to a nearby acceptor.

Like-named read-outs stand apart in the source and are kept apart here.

As usually defined, the IC50 is the point on the concentration scale where inhibition reaches its midpoint.

As to `N[C@@H]1c2ccnn2CC12CCN(c1cnc(Sc3ccn4c([N+](=O)[O-])cnc4c3Cl)cn1)CC2` [Example 52, (S)-1-(5-((8-chloro-3-nitroimidazo[1,2-a]pyridin-7-yl)thio)pyrazin-2-yl)-4′H,6′H-spiro[piperidine-4,5′-pyrrolo[1,2-b]pyrazol]-4′-amine], the IC50 in experiment [1] is at most 50 nM; in experiment [2] (KYSE-520, 2 h), below 100 nM.
The corresponding values for `Nc1ccc(Sc2cnc(N3CCC4(CC3)Cn3nccc3[C@H]4N)cn2)c(Cl)n1` [Example 55, (S)-1-(5-((6-amino-2-chloropyridin-3-yl)thio)pyrazin-2-yl)-4′H,6′H-spiro[piperidine-4,5′-pyrrolo[1,2-b]pyrazol]-4′-amine] are at most 50 nM and below 100 nM.
The like results for `N[C@@H]1c2ccnn2CC12CCN(c1cnc(Sc3ccc4nccn4c3Cl)cn1)CC2` [Example 56, (S)-1-(5-((5-chloroimidazo[1,2-a]pyridin-6-yl)thio)pyrazin-2-yl)-4′H,6′H-spiro[piperidine-4,5′-pyrrolo[1,2-b]pyrazol]-4′-amine] were, in that order, at most 50 nM and below 100 nM.
Take `N#Cc1cn2ccc(Sc3cnc(N4CCC5(CC4)Cn4nccc4[C@H]5N)cn3)c(Cl)c2n1` [Example 57, (S)-7-((5-(4′-amino-4′H,6′H-spiro[piperidine-4,5′-pyrrolo[1,2-b]pyrazol]-1-yl)pyrazin-2-yl)thio)-8-chloroimidazo[1,2-a]pyridine-2-carbonitrile]: the IC50 in experiment [1] was at most 50 nM; in experiment [2] (KYSE-520, 2 h), below 100 nM.
In the case of `N[C@@H]1c2ccnn2CC12CCN(c1cnc(SC3=C(Cl)C4=NC(=O)CN4C=C3)cn1)CC2` [Example 58, (S)-7-((5-(4′-amino-4′H,6′H-spiro[piperidine-4,5′-pyrrolo[1,2-b]pyrazol]-1-yl)pyrazin-2-yl)thio)-8-chloroimidazo[1,2-a]pyridin-2(3H)-one], the IC50 was at most 50 nM in experiment [1] and 100 to 500 nM in experiment [2].
`N[C@@H]1c2ccnn2CC12CCN(c1cnc(Sc3ccnc(-n4ccnc4)c3Cl)cn1)CC2` [Example 59, (S)-1-(5-((3-chloro-2-(1H-imidazol-1-yl)pyridin-4-yl)thio)pyrazin-2-yl)-4′H,6′H-spiro[piperidine-4,5′-pyrrolo[1,2-b]pyrazol]-4′-amine]: the IC50 in experiment [1] was at most 50 nM; in experiment [2] (KYSE-520, 2 h) it was below 100 nM.
As to `Nc1nc(N2CCC3(CC2)Cn2nccc2[C@H]3N)cnc1Sc1ccnc(-n2cccn2)c1Cl` [Example 60, (S)-1-(6-amino-5-((3-chloro-2-(1H-pyrazol-1-yl)pyridin-4-yl)thio)pyrazin-2-yl)-4′H,6′H-spiro[piperidine-4,5′-pyrrolo[1,2-b]pyrazol]-4′-amine], the IC50 in experiment [1] was at most 50 nM; in experiment [2] (KYSE-520, 2 h) it was below 100 nM.
The corresponding values for `N[C@@H]1c2ccnn2CC12CCN(c1cnc(Sc3ccnc(-n4cc(F)cn4)c3Cl)cn1)CC2` [Example 61, (S)-1-(5-((3-chloro-2-(4-fluoro-1H-pyrazol-1-yl)pyridin-4-yl)thio)pyrazin-2-yl)-4′H,6′H-spiro[piperidine-4,5′-pyrrolo[1,2-b]pyrazol]-4′-amine] are at most 50 nM and below 100 nM.
The corresponding values for `N[C@@H]1c2ccnn2CC12CCN(c1cnc(Sc3ccnc(-n4cccc4)c3Cl)cn1)CC2` [Example 62, (S)-1-(5-((3-chloro-2-(1H-pyrrol-1-yl)pyridin-4-yl)thio)pyrazin-2-yl)-4′H,6′H-spiro[piperidine-4,5′-pyrrolo[1,2-b]pyrazol]-4′-amine] are at most 50 nM and below 100 nM.
The corresponding values for `Nc1nc(N2CCC3(CC2)Cn2nccc2[C@H]3N)cnc1Sc1ccnc(-n2ccnc2)c1Cl` [Example 63, (S)-1-(6-amino-5-((3-chloro-2-(1H-imidazol-1-yl)pyridin-4-yl)thio)pyrazin-2-yl)-4′H,6′H-spiro[piperidine-4,5′-pyrrolo[1,2-b]pyrazol]-4′-amine] are at most 50 nM and below 100 nM.
Regarding `Cc1cn2ccc(Sc3ncc(N4CCC5(CC4)Cn4nccc4[C@H]5N)nc3N)c(Cl)c2n1` [Example 64, (S)-1-(6-amino-5-((8-chloro-2-methylimidazo[1,2-a]pyridin-7-yl)thio)pyrazin-2-yl)-4′H,6′H-spiro[piperidine-4,5′-pyrrolo[1,2-b]pyrazol]-4′-amine], the IC50 in experiment [1] is at most 50 nM; in experiment [2] (KYSE-520, 2 h), below 100 nM.
The like results for `NC(=O)c1cnn(-c2nccc(Sc3cnc(N4CCC5(CC4)Cn4nccc4[C@H]5N)cn3)c2Cl)c1` [Example 65, (S)-1-(4-((5-(4′-amino-4′H,6′H-spiro[piperidine-4,5′-pyrrolo[1,2-b]pyrazol]-1-yl)pyrazin-2-yl)thio)-3-chloropyridin-2-yl)-1H-pyrazole-4-carboxamide] were, in that order, at most 50 nM and below 100 nM.
Consider `NC(=O)c1ccn(-c2nccc(Sc3cnc(N4CCC5(CC4)Cn4nccc4[C@H]5N)cn3)c2Cl)c1` [Example 66, (S)-1-(4-((5-(4′-amino-4′H,6′H-spiro[piperidine-4,5′-pyrrolo[1,2-b]pyrazol]-1-yl)pyrazin-2-yl)thio)-3-chloropyridin-2-yl)-1H-pyrrole-3-carboxamide], for which the IC50 in experiment [1] was at most 50 nM; in experiment [2] (KYSE-520, 2 h) it was below 100 nM.
In the case of `CNC(=O)c1ccn(-c2nccc(Sc3cnc(N4CCC5(CC4)Cn4nccc4[C@H]5N)cn3)c2Cl)c1` [Example 67, (S)-1-(4-((5-(4′-amino-4′H,6′H-spiro[piperidine-4,5′-pyrrolo[1,2-b]pyrazol]-1-yl)pyrazin-2-yl)thio)-3-chloropyridin-2-yl)-N-methyl-1H-pyrrole-3-carboxamide], the IC50 in experiment [1] is at most 50 nM; in experiment [2] (KYSE-520, 2 h), below 100 nM.
The corresponding values for `CN(C)C(=O)c1cn2ccc(Sc3cnc(N4CCC5(CC4)Cn4nccc4[C@H]5N)cn3)c(Cl)c2n1` [Example 68, (S)-7-((5-(4′-amino-4′H,6′H-spiro[piperidine-4,5′-pyrrolo[1,2-b]pyrazol]-1-yl)pyrazin-2-yl)thio)-8-chloro-N,N-dimethylimidazo[1,2-a]pyridine-2-carboxamide] are at most 50 nM and below 100 nM.
For the molecule `CN(C)C(=O)c1cnn(-c2nccc(Sc3cnc(N4CCC5(CC4)Cn4nccc4[C@H]5N)cn3)c2Cl)c1` [Example 69, (S)-1-(4-((5-(4′-amino-4′H,6′H-spiro[piperidine-4,5′-pyrrolo[1,2-b]pyrazol]-1-yl)pyrazin-2-yl)thio)-3-chloropyridin-2-yl)-N,N-dimethyl-1H-pyrazole-4-carboxamide], the IC50 in experiment [1] is at most 50 nM; in experiment [2] (KYSE-520, 2 h), below 100 nM.
The like results for `Cn1cc2c(Cl)c(-c3n[nH]c4nc(N5CCC6(CC5)Cn5nccc5[C@H]6N)cnc34)ccc2n1` [Example 70, (S)-1-(3-(4-chloro-2-methyl-2H-indazol-5-yl)-1H-pyrazolo[3,4-b]pyrazin-6-yl)-4′H,6′H-spiro[piperidine-4,5′-pyrrolo[1,2-b]pyrazol]-4′-amine] were, in that order, at most 50 nM and below 100 nM.
Turning to `N[C@@H]1c2ccnn2CC12CCN(c1cnc3c(-c4ccnc(-n5cccn5)c4Cl)n[nH]c3n1)CC2` [Example 71, (S)-1-(3-(3-chloro-2-(1H-pyrazol-1-yl)pyridin-4-yl)-1H-pyrazolo[3,4-b]pyrazin-6-yl)-4′H,6′H-spiro[piperidine-4,5′-pyrrolo[1,2-b]pyrazol]-4′-amine], the IC50 in experiment [1] is at most 50 nM; in experiment [2] (KYSE-520, 2 h), 100 to 500 nM.
